Experimental data from patent US20260061084A1, “FIBROBLAST ACTIVATION PROTEIN (FAP) INHIBITORS, FAP CONJUGATES, AND DIAGNOSTIC AND THERAPEUTIC USES THEREOF” (Nuclidium AG, priority 2022, published 2026).

Legend:
[1] = tested on: Mice bearing FAP-positive and FAP-negative xenografts; experiment: PET/CT imaging: remaining PET activity in the mouse body; type: in vivo
Description: The mice were euthanized by CO2 at 4 hours p.i., and static PET scans were acquired for 30 min.
PET/CT images were acquired using β-CUBE PET scanner system (Molecubes, Gent, Belgium), with a spatial resolution of 0.85 mm and an axial field-of-view of 13 cm. Dynamic PET scans were acquired for 60 min. All PET scans were decay corrected and reconstructed into a 192×192×384 matrix by an ordered subsets maximization expectation (OSEM) algorithm using 30 iterations, a voxel size of 400×400×400 μm a 15 min per frame. CT data was used to apply attenuation correction on the PET data. The CT was imaged supine, head first, using the NanoSPECT/CTTM scanner (Bioscan Inc.). Topograms and helical CT scans of the whole mouse were first acquired using the following parameters: X-ray tube current: 177 μA, X-ray tube voltage 45 kVp, 90 seconds and 180 frames per rotation, pitch 1. CT images were reconstructed using CTReco (version r1.146), with a standard filtered back projection algorithm (exact cone beam) and post-filtered (RamLak, 100% frequency cut-off), resulting in a pixel size of 0.2 mm. Co-registered PET/CT images were visualized using maximum intensity projection (MIP) with VivoQuant software (version 4.0).

[2] = tested on: HT-1080.hFAP (FAP-positive) cells; experiment: In vitro cellular uptake (cell surface-bound and internalized fractions); type: cell-based, human; details: 37° C., specific uptake (HT-1080.wt subtracted)
Description: The cellular uptake was studied in vitro using intact cells seeded in 6-well plates overnight. […] At each investigated time point, the medium containing the unbound (free) radiotracer was removed, followed by two washing steps with ice-cold phosphate-buffered saline. The cells were then treated 2×5 min with ice-cold glycine solution (0.05 M, pH 2.8) to detach the cell surface-bound radiotracer (acid released). Afterwards, the cells containing the internalized radiotracer were detached with 1 M NaOH at 37° C. and collected for measurement. The amount of specific cell surface-bound and internalized radiotracer is expressed as percentage of the total applied activity, after subtracting the non-specific values.
The cells were then preconditioned in 360 μL of assay medium (MEM medium without supplements) at 37° C. for 60 min. 40 μL of a 2 nM solution of ^61Cu-labeled radioligand was added and the cells were incubated at 37° C. The cellular uptake was interrupted at different time points (15 min, 1 hour and 4 hours), by washing twice with ice-cold PBS. Cell surface-bound radioligand was obtained by washing cells twice with ice-cold glycine buffer (pH 2.8), followed by a collection of the internalized fraction with 1 M NaOH. The activity in each fraction was measured in a […] (Cobra II).

[3] = tested on: HT-1080.hFAP tumor-bearing mice; experiment: Biodistribution studies in xenografted mice; type: in vivo; details: for Biodistribution: HT-1080.wt: FAP-negative tumor; for Biodistribution: HT-1080.hFAP: FAP-positive tumor
Description: The tumors were allowed to grow to an average volume of 100-200 mm^3.
Biodistribution Studies: The xenografted mice were randomized (n=5 per group) and injected intravenously via the tail vein with the ^61Cu-labeled radioligands (100 μL, […], 0.8-1MBq). Mice were euthanized 1 h and 4 h p.i. by CO2 asphyxiation. Organs of interest and blood were collected, rinsed of excess blood, blotted dry, weighed, and counted in a […]. The samples were counted against a suitably diluted aliquot of the injected solution as the standard and the results are expressed as the percentage of the injected activity per gram of tissue (% I.A./g) ±SD.

Structure (SMILES): N#CC1CC(F)(F)CN1C(=O)CNC(=O)c1ccnc2ccc(NC(=O)CCC(=O)NCCNC(=O)CCC(C(=O)O)N3CCN(CC(=O)[O-])CCN(CC(=O)[O-])CC3)cc12.[61Cu+2] (stereo not drawn) [[^61Cu]Cu-NODAGA-1]
- Retention in the body (remaining PET activity 4 h p.i.), in words [1]: highest retention in the body
- Cell surface fraction ([2]; 15 min): 1.2 ± 0.3 % of the applied activity
- Internalized fraction ([2]; 30 min): 26.2 ± 3.5 % of the applied activity
- Cell surface fraction ([2]; 60 min): 1.4 ± 0.3 % of the applied activity
- Internalized fraction ([2]; 60 min): 29.9 ± 1.8 % of the applied activity
- Cell surface fraction ([2]; 240 min): 1.3 ± 0.2 % of the applied activity
- Internalized fraction ([2]; 240 min): 29.3 ± 1.8 % of the applied activity
- Biodistribution: Spleen ([3]; 1 hour p.i., i.v.): 0.8 ± 0.1 % I.A./g
- Biodistribution: Heart ([3]; 4 hours p.i., i.v.): 0.7 ± 0.1 % I.A./g
- Biodistribution: Liver ([3]; 4 hours p.i., i.v.): 1.0 ± 0.2 % I.A./g
- Biodistribution: Lung ([3]; 4 hours p.i., i.v.): 0.8 ± 0.2 % I.A./g
- Biodistribution: Spleen ([3]; 4 hours p.i., i.v.): 0.5 ± 0.1 % I.A./g
- Biodistribution: Stomach ([3]; 4 hours p.i., i.v.): 0.7 ± 0.1 % I.A./g
- Biodistribution: HT-1080.wt ([3]; 1 hour p.i., i.v.): 4.5 ± 0.6 % I.A./g
- Biodistribution: HT-1080.wt ([3]; 4 hours p.i., i.v.): 2.1 ± 0.5 % I.A./g
- Biodistribution: HT-1080.hFAP ([3]; 1 hour p.i., i.v.): 12.6 ± 1.5 % I.A./g
- Biodistribution: HT-1080.hFAP ([3]; 4 hours p.i., i.v.): 7.1 ± 3.0 % I.A./g
- Accumulation in FAP-positive (HT-1080.hFAP) tumor and murine-FAP-positive tissues, such as the bone marrow (bones) ([3]; xenografted mice, 1 h and 4 h p.i.): high accumulation
